One experiment concerns the target T1, human GRα protein (Homo sapiens, UniProt P04150).
T1 construct: made in house; host or cells: insect cells infected with baculovirus; cytoplasm fraction used
T1 sequence (P04150 1-777): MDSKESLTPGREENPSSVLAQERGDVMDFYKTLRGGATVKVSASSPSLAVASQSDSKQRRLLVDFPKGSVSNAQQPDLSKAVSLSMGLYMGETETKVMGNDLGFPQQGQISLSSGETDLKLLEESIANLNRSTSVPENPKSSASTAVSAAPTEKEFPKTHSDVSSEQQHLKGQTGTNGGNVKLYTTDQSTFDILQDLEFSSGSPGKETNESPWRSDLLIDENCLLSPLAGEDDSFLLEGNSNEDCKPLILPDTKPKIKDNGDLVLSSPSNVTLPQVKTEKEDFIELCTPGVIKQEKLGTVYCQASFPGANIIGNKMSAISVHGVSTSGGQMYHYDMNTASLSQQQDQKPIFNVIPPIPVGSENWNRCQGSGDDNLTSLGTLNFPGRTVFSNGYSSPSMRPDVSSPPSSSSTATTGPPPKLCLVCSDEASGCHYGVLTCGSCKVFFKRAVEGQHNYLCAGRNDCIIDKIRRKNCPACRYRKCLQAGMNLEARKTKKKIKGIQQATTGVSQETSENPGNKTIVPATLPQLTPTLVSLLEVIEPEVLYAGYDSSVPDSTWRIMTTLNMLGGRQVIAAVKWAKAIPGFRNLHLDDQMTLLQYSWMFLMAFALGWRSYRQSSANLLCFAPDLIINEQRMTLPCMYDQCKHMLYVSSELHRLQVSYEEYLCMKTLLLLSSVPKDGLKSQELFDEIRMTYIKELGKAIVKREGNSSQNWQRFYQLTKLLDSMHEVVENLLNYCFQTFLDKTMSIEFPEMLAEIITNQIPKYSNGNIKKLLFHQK
As to the kind of experiment: Binding inhibitory assay (displacement of 3H-dexamethasone from the cytoplasm fraction of baculovirus-infected insect cells). The conditions noted are these: 100 nM test compound; 3H-Dex; NSB with 10 μM dexamethasone; read-out: Binding Inhibitory ratio (%) of 100 nM of test compound. As for the experimental part:
Insect cells, which had been infected with baculovirus for expressing human GRα protein, were suspended in an approximately equal volume of a binding buffer (10 mM Tris-Cl, 1.5 mM EDTA, 10% glycerol, 5 mM DTT, 20 mM sodium molybdate, pH 7.6). The mixture was rapidly frozen with liquid nitrogen, and then melted at room temperature. This cycle was repeated totally twice in order to break the cell membrane. The mixture was ultracentrifuged under 100,000 g at 4° C. for one hour to give the supernatant, which was the cytoplasm fraction containing human GRα protein.
A polypropylene 96-well plate (manufactured by Costar Corporation, etc.) was placed on ice, and DMSO or a test compound (each 1 μl) was put into each well. A 10 nM ^3H-Dex solution (50 μl; tritiated dexamethasone; manufactured by Amersham) in the binding buffer, and a GR protein solution, i.e., a solution by diluting the above cytoplasm fraction with the binding buffer (50 μl) were added to each well, and the plate was lightly shaken with a plate mixer, and then left to stand at 4° C. for 16 to 20 hours (the final concentration of DMSO: 1%).
A 5% solution of dextran-coated active carbon (manufactured by Sigma) suspended in the binding buffer (50 μl) was put into each well, and the plate was lightly shaken with a plate mixer for 30 seconds. Then, the plate was centrifuged at 2500 rpm at 4° C. for 5 minutes, and the ^3H count in the supernatant (50 μl) was measured by a TopCount (manufactured by Perkin-Elmer Corporation). Each test compound was tested twice.
The binding activity was calculated as follows. The mean ^3H count in the presence of dexamethason (Dex) 10 μM was considered as NSB (non-specific binding), and the binding inhibitory ratio in each well was calculated by the following equation.
Binding Inhibitory Ratio (%)=100×{1−(cpm value of each well−NSB)/(mean cpm value of DMSO-well−NSB)}
(cpm means count per minute)
The mean binding inhibitory ratio of each well was calculated by the above equation to give a binding inhibitory ratio of each test compound.
For orientation: Loss of bound radioactivity is the signal in a displacement assay; it reports binding, not function.

A further experiment deals with H4-III-E cells. Briefly: TAT (tyrosine aminotransferase) assay. The format is cell-based. The following applies: for Agonistic activity of 10 μM test compound / activation at 10 µM: 10 μM test compound alone, relative to maximum Dex-induced TAT activity (100%); for Antagonistic activity of 10 μM test compound: 10 μM test compound together with 0.005 μM dexamethasone, inhibitory ratio against TAT activity increase by Dex; for activation at 10 µM: read-out: Agonistic activity of 10 μM test compound. Here is the method: H4-III-E cells, which had been continuously cultured in α-MEM medium A (supplemented with 10% inactivated FBS, 50 μM 2-mercapto-ethanol), were suspended in α-MEM medium A or α-MEM medium B (supplemented with 10% inactivated FBS, 50 μM 2-mercapto-ethanol, but without phenol red), and the cell suspension was seeded to a 96-well plate in an amount of 2×10^4 cells/100 μl/well, and the cells were cultured overnight. The supernatant in the medium was removed, and a test compound (100 μl, diluted with α-MEM medium A or α-MEM medium B) was added, and the cells were further cultured overnight. In order to measure the agonistic activity, a test compound was added alone, while in order to measure the antagonistic activity, a test compound was added simultaneously together with 0.005 μM dexamethasone and evaluated the extent of the inhibitory effect of said test compound against the TAT activity-inducing activity by dexamethasone.
The culture supernatant in the plate was removed by suction, and a cell lysate (20 μL; 1% NP-40, 0.2% Triton X-100, 0.25% DOC, 0.1% SDS, 1 mM EGTA, 150 mM NaCl, Tris (pH7.4), Protease inhibitor cocktail [2.5 mg/ml aprotinin, 2.5 mg/ml leupeptin, 2.5 mg/ml soybean trypsin inhibitor]) was added, and further thereto was added a TAT reaction reagent (150 μL; 10 N KOH, 0.125 M KH2PO4, 0.5 M α-ketoglutarate, 5 mM Pyridoxal-5′ phosphate, L-tyrosine), and the mixture was reacted at 37° C. for 15 minutes. Further, a 10N KOH (20 μL) was added thereto, and the mixture was reacted at 37° C. for 30 minutes, and the absorbance at 331 nm was measured by a microplate reader (SPECTRA MAX 250).
From the mean absorbance in the wells to which a test compound was added, the mean absorbance in the wells to which a compound and a TAT reaction solution were not added was subtracted.
Agonistic activity (%)=100×[(absorbance of the drug-treated group)−(absorbance of the group without TAT reaction reagent)]/[(absorbance of Dex-treated group)−(absorbance of the group without TAT reaction reagent)]
On the other hand, the antagonistic activity was calculated as follows.
Antagonistic activity (%)=Inhibitory ratio (%) against TAT activity increase by Dex=100−100×[(absorbance of the drug-treated group)−(absorbance of the group without a drug)]/[(absorbance of Dex-treated group)−(absorbance of the group without a drug)]
With regard to the agonistic activity and the antagonistic activity, the results of 10% or more were expressed as O, while the results of less than 10% were expressed as X.

Some results are limits rather than exact numbers.

As for `COc1ccc(C(=O)C2CCN(CC(O)(c3cn(Cc4ccccc4)c4cc([N+](=O)[O-])ccc34)C(F)(F)F)CC2)cc1` (centres unmarked) [Example 73, {1-[2-(1-Benzyl-6-nitro-1H-indol-3-yl)-3,3,3-trifluoro-2-hydroxypropyl]piperidin-4-yl}(4-methoxyphenyl)methanone], on human GRα protein, the inhibition at 0.1 µM stood at 95%. Moreover, in the experiment with H4-III-E cells, the “Agonistic activity of 10 μM test compound” value was “◯” and the “Antagonistic activity of 10 μM test compound” value (shortened to “Antagonistic activity”) is recorded as “◯”.
As to `O=C(O)Cc1ccc(OC2CCN(CC(O)(c3cn(Cc4ccccc4)c4cc([N+](=O)[O-])ccc34)C(F)(F)F)CC2)cc1` (centres unmarked) [Example 180, [4-({1-[2-(1-Benzyl-6-nitro-1H-indol-3-yl)-3,3,3-trifluoro-2-hydroxypropyl]-piperidin-4-yl}oxy)phenyl]acetic acid], the inhibition at 0.1 µM at human GRα protein was 98%. Moreover, in the experiment with H4-III-E cells, the “Agonistic activity of 10 μM test compound” value is “◯” and the “Antagonistic activity” value is given as “◯”.
Consider `O=[N+]([O-])c1ccc2c(C(O)(CN3CCS(=O)(=O)CC3)C(F)(F)F)cn(Cc3ccccc3)c2c1` (centres unmarked) [Example 120, 2-(1-Benzyl-6-nitro-1H-indol-3-yl)-3-(1,1-dioxidothiomorpholin-4-yl)-1,1,1-trifluoropropan-2-ol], for which the inhibition at 0.1 µM at human GRα protein came out at 97%. In the experiment with H4-III-E cells, the “Agonistic activity of 10 μM test compound” value is “◯” and the “Antagonistic activity” value is reported as “◯”.
In the case of `CN1CCCN(C(=O)c2ccc(OC3CCN(CC(O)(c4cn(Cc5ccccc5)c5cc([N+](=O)[O-])ccc45)C(F)(F)F)CC3)cc2)CC1` (centres unmarked) [Example 203, 2-(1-Benzyl-6-nitro-1H-indol-3-yl)-1,1,1-trifluoro-3-(4-{4-[(4-methyl-1,4-diazepan-1-yl)carbonyl]phenoxy}piperidin-1-yl)propan-2-ol], the inhibition at 0.1 µM at human GRα protein worked out at 94%. In addition, in the experiment with H4-III-E cells, the “Agonistic activity of 10 μM test compound” value is reported as “◯” and the “Antagonistic activity” value is listed as “◯”.
As to `Cc1ccccc1C(=O)CC(O)(c1cn(Cc2ccccc2)c2cc([N+](=O)[O-])ccc12)C(F)(F)F` (centres unmarked) [Example 68, 3-(1-Benzyl-6-nitro-1H-indol-3-yl)-4,4,4-trifluoro-3-hydroxy-1-(2-methylphenyl)-butan-1-one], the inhibition at 0.1 µM at human GRα protein amounted to 79%. Moreover, in the experiment on H4-III-E cells, the activation at 10 µM is less than 10% and the “Antagonistic activity” value is “◯”.
`O=[N+]([O-])c1ccc2c(C(O)(Cn3cccn3)C(F)(F)F)cn(Cc3ccccc3)c2c1` (centres unmarked) [Example 150, 2-(1-Benzyl-6-nitro-1H-indol-3-yl)-1,1,1-trifluoro-3-(1H-pyrazol-1-yl)propan-2-ol]: the inhibition at 0.1 µM at human GRα protein is 98%. Also, in the experiment with H4-III-E cells, the “Agonistic activity of 10 μM test compound” value is given as “◯” and the “Antagonistic activity” value is recorded as “◯”.
As for `O=C(O)c1ccc(OC2CCN(CC(O)(c3cn(Cc4ccccc4)c4cc([N+](=O)[O-])ccc34)C(F)(F)F)CC2)cc1` (centres unmarked) [Example 178, 4-({1-[2-(1-Benzyl-6-nitro-1H-indol-3-yl)-3,3,3-trifluoro-2-hydroxypropyl]-piperidin-4-yl}oxy)benzoic acid], at human GRα protein, the inhibition at 0.1 µM came out at 95%. In the experiment with H4-III-E cells, the “Agonistic activity of 10 μM test compound” value is on record as “◯” and the “Antagonistic activity” value was “◯”.
For the molecule `O=[N+]([O-])c1ccc2c(C(O)(CN3CCCCC3)C(F)(F)F)cn(Cc3ccccc3)c2c1` (centres unmarked) [Example 1, 2-(1-Benzyl-6-nitro-1H-indol-3-yl)-1,1,1-trifluoro-3-piperidin-1-ylpropan-2-ol], the inhibition at 0.1 µM at human GRα protein worked out at 92%. For the same molecule, in the experiment on H4-III-E cells, the activation at 10 µM was less than 10% and the “Antagonistic activity” value is recorded as “◯”.
As for `COc1cc(CC(=O)O)ccc1OC1CCN(CC(O)(c2cn(Cc3ccncc3)c3cc(C#N)ccc23)C(F)(F)F)CC1` (centres unmarked) [Example 235, {4-[(1-{2-[6-Cyano-1-(pyridin-4-ylmethyl)-1H-indol-3-yl]-3,3,3-trifluoro-2-hydroxypropyl}piperidin-4-yl)oxy]-3-methoxyphenyl}acetic acid], the inhibition at 0.1 µM at human GRα protein was determined as 79%. Moreover, in the experiment on H4-III-E cells, the activation at 10 µM was less than 10% and the “Antagonistic activity” value was “◯”.
As to `COCCNCC(O)(c1cn(Cc2ccccc2)c2cc([N+](=O)[O-])ccc12)C(F)(F)F` (centres unmarked) [Example 131, 2-(1-Benzyl-6-nitro-1H-indol-3-yl)-1,1,1-trifluoro-3-[(2-methoxyethyl)amino]-propan-2-ol], on human GRα protein, the inhibition at 0.1 µM came out at 84%. The activation at 10 µM in the experiment with H4-III-E cells is less than 10%.
Consider `CCOC(=O)CCCCNCC(O)(c1cn(Cc2ccccc2)c2cc([N+](=O)[O-])ccc12)C(F)(F)F` (centres unmarked) [Example 173, Ethyl 5-{[2-(1-benzyl-6-nitro-1H-indol-3-yl)-3,3,3-trifluoro-2-hydroxypropyl]-amino}pentanoate], for which, on human GRα protein, the inhibition at 0.1 µM came to 88%. In addition, in the experiment with H4-III-E cells, the activation at 10 µM was less than 10% and the “Antagonistic activity” value is given as “◯”.
With `O=[N+]([O-])c1ccc2c(C(O)(CN3CCC(O)CC3)C(F)(F)F)cn(Cc3ccccc3)c2c1` (centres unmarked) [Example 78, 1-[2-(1-Benzyl-6-nitro-1H-indol-3-yl)-3,3,3-trifluoro-2-hydroxypropyl]piperidin-4-ol], the inhibition at 0.1 µM on human GRα protein came to 81%. In the experiment on H4-III-E cells, the “Agonistic activity of 10 μM test compound” value is reported as “◯” and the “Antagonistic activity” value was “◯”.
In the case of `O=[N+]([O-])c1ccc2c(C(O)(CN3CCC(Oc4ccc(F)cc4)CC3)C(F)(F)F)cn(Cc3ccccc3)c2c1` (centres unmarked) [Example 77, 2-(1-Benzyl-6-nitro-1H-indol-3-yl)-1,1,1-trifluoro-3-[4-(4-fluorophenoxy)-piperidin-1-yl]propan-2-ol], the inhibition at 0.1 µM on human GRα protein came out at 92%. For the same molecule, in the experiment with H4-III-E cells, the “Agonistic activity of 10 μM test compound” value is “◯” and the “Antagonistic activity” value is on record as “◯”.
